# Laboratory results as given in patent US9113631B2, “1,3-diaryl-substituted heterocyclic pesticides” (E I DU PONT DE NEMOURS AND COMPANY, priority 2011, dated 2015).
# Test system: potato leafhopper (Empoasca fabae)
# Experiment: Test F: control of potato leafhopper on Soleil bean plant, contact and/or systemic
# Assay type: in vivo
# Settings: 144 h, sprayed at 250 ppm, adults on Soleil bean plant, 6 days, 24° C., read-out: control efficacy, very good to excellent: mortality
# Protocol: Test compounds were formulated using a solution containing 10% acetone, 90% water and 300 ppm X-77® Spreader Lo-Foam Formula non-ionic surfactant containing alkylarylpolyoxyethylene, free fatty acids, glycols and isopropanol (Loveland Industries, Inc. Greeley, Colo., USA). The formulated compounds were applied in 1 mL of liquid through a SUJ2 atomizer nozzle with 1/8 JJ custom body (Spraying Systems Co., Wheaton, Ill., USA) positioned 1.27 cm (0.5 inches) above the top of each test unit. Test compounds were sprayed at 250 ppm and/or 50 ppm, and replicated three times. After spraying of the formulated test compound, each test unit was allowed to dry for 1 h and then a black, screened cap was placed on top. The test units were held for 6 days in a growth chamber at 25° C. and 70% relative humidity. Plant feeding damage was then visually assessed based on foliage consumed. […]
# Test compounds were formulated and sprayed at 250 ppm and/or 50 ppm, and the tests were replicated three times as described for Test A. After spraying, the test units were allowed to dry for 1 h before they were post-infested with 5 potato leafhoppers (18-21-day-old adults). […] Each test unit was then visually assessed for insect mortality.
smiles,measurement,value
"N#CC1CCN(Cc2cn(-c3cccc(C(F)(F)F)c3)nc2-c2ccc(F)cc2)CC1 [Compound 12, 1-[[3-(4-fluorophenyl)-1-[3-(trifluoromethyl)phenyl]-1H-pyrazol-4-yl]methyl]-4-piperidinecarbonitrile]",mortality at 250 ppm,≥ 80%
